Results from PubChem BioAssay (NCI).
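Assay format: 96-well plates, 48-hour exposure. GI50 is the concentration that inhibits growth by half. TGI: total growth inhibition.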

Experiments:
Assay in all cases: DTP human tumour cell line panel, 48 h
[1] = system: 786-0 renal
[2] = system: A498 renal
[3] = system: A549 NSCLC
[4] = system: ACHN renal
[5] = system: BT-549 breast
[6] = system: CAKI-1 renal
[7] = system: CCRF-CEM leukemia
[8] = system: COLO 205 colon
[9] = system: DU-145 prostate
[10] = system: EKVX NSCLC
[11] = system: HCC-2998 colon
[12] = system: HCT-116 colon
[13] = system: HCT-15 colon
[14] = system: HL-60(TB) leukemia
[15] = system: HOP-62 NSCLC
[16] = system: HOP-92 NSCLC
[17] = system: HS 578T breast
[18] = system: HT29 colon
[19] = system: IGROV1 ovarian
[20] = system: K-562 leukemia
[21] = system: KM12 colon
[22] = system: LOX IMVI melanoma
[23] = system: M14 melanoma
[24] = system: MALME-3M melanoma
[25] = system: MCF7 breast
[26] = system: MDA-MB-231 breast
[27] = system: MDA-MB-435
[28] = system: MDA-N
[29] = system: MOLT-4 leukemia
[30] = system: NCI-H226 lung
[31] = system: NCI-H23 lung
[32] = system: NCI-H460 lung
[33] = system: NCI-H522 lung
[34] = system: NCI/ADR-RES ovarian
[35] = system: OVCAR-3 ovarian
[36] = system: OVCAR-4 ovarian
[37] = system: OVCAR-5 ovarian
[38] = system: OVCAR-8 ovarian
[39] = system: PC-3 prostate
[40] = system: RPMI-8226 leukemia
[41] = system: RXF 393 renal
[42] = system: SF-268 CNS
[43] = system: SF-295 CNS
[44] = system: SF-539 CNS
[45] = system: SK-MEL-2 melanoma
[46] = system: SK-MEL-28 melanoma
[47] = system: SK-MEL-5 melanoma
[48] = system: SK-OV-3 ovarian
[49] = system: SN12C renal
[50] = system: SNB-19 CNS
[51] = system: SNB-75 CNS
[52] = system: SR leukemia
[53] = system: SW-620 colon
[54] = system: T-47D breast
[55] = system: TK-10 renal
[56] = system: U251 CNS
[57] = system: UACC-257 melanoma
[58] = system: UACC-62 melanoma
[59] = system: UO-31 renal
[60] = system: KM20L2 colon

COC(=O)c1ccc(NCC2=CC(=O)c3ccccc3C2=O)cc1
TGI [1]: 43.2 µM | TGI [2]: 54.2 µM | TGI [3]: 96.7 µM | TGI [4]: 42.4 µM | TGI [5]: 42.2 µM | TGI [6]: 28 µM | TGI [7]: > 100 µM | TGI [8]: 31.6 µM | TGI [9]: 31.3 µM | TGI [10]: 66.5 µM | TGI [11]: > 63.3 µM | TGI [12]: 35.3 µM | TGI [13]: 33.1 µM | TGI [14]: > 25.9 µM | TGI [15]: 34.7 µM | TGI [16]: 12.3 µM | TGI [17]: 76.4 µM | TGI [18]: > 76.4 µM | TGI [19]: 30.2 µM | TGI [20]: 32.2 µM | TGI [21]: 33 µM | TGI [22]: 23.3 µM | TGI [23]: 37.1 µM | TGI [24]: 19.9 µM | TGI [25]: > 100 µM | TGI [26]: 10.3 µM | TGI [27]: 30.3 µM | TGI [28]: 26.6 µM | TGI [29]: > 29.1 µM | TGI [30]: 39.2 µM | TGI [31]: 38.2 µM | TGI [32]: 35.6 µM | TGI [33]: 42.3 µM | TGI [34]: 90.6 µM | TGI [35]: 26.7 µM | TGI [36]: 29.1 µM | TGI [37]: 49.5 µM | TGI [38]: > 100 µM | TGI [39]: 27.8 µM | TGI [40]: > 26.5 µM | TGI [41]: > 61.7 µM | TGI [42]: 66.2 µM | TGI [43]: 35.1 µM | TGI [44]: 63.6 µM | TGI [45]: 42.2 µM | TGI [46]: 33.8 µM | TGI [47]: 27.6 µM | TGI [48]: 35.3 µM | TGI [49]: 59.3 µM | TGI [50]: 99.7 µM | TGI [51]: 46.8 µM | TGI [52]: 39.4 µM | TGI [53]: 54.5 µM | TGI [54]: 32.5 µM | TGI [55]: 37.1 µM | TGI [56]: 63 µM | TGI [57]: 29.4 µM | TGI [58]: 27.6 µM | TGI [59]: 35.8 µM

O=C(N/N=C/c1cc(Br)cc(Br)c1[O-])c1ccccc1O.O=C(N/N=C/c1cc(Br)cc(Br)c1[O-])c1ccccc1O.[Mn+2]
GI50 [1]: 0.887 µM | TGI [1]: 15.9 µM | GI50 [2]: 12.8 µM | TGI [2]: 50.1 µM | TGI [3]: 25.5 µM | TGI [4]: 15.1 µM | TGI [6]: 11.9 µM | GI50 [7]: 0.263 µM | TGI [7]: 6.42 µM | TGI [8]: 13.2 µM | TGI [10]: 34.6 µM | TGI [11]: 25.9 µM | TGI [12]: 7.36 µM | TGI [13]: 19.9 µM | TGI [14]: 2.81 µM | TGI [15]: 25.9 µM | TGI [16]: 14.9 µM | TGI [18]: 22.3 µM | TGI [19]: 22.7 µM | GI50 [20]: 1.66 µM | TGI [20]: 12.1 µM | TGI [21]: 22.9 µM | TGI [60]: 21.3 µM | TGI [23]: 3.48 µM | TGI [24]: 16.6 µM | TGI [29]: 7.94 µM | TGI [30]: 11 µM | TGI [32]: 13.9 µM | TGI [35]: 1.66 µM | TGI [36]: 17.5 µM | TGI [37]: 16.4 µM | TGI [38]: 14.3 µM | GI50 [40]: 1.03 µM | TGI [40]: 14.8 µM | TGI [41]: 28.4 µM | TGI [42]: 10.6 µM | TGI [43]: 13.7 µM | TGI [44]: 5.56 µM | TGI [45]: 22.3 µM | TGI [46]: 13.8 µM | TGI [47]: 19.2 µM | TGI [48]: 33.8 µM | GI50 [49]: 1.56 µM | TGI [49]: 16.5 µM | TGI [50]: 36 µM | TGI [51]: 15.5 µM | TGI [53]: 24.1 µM | TGI [55]: 31 µM | TGI [56]: 14.8 µM | TGI [57]: 21 µM | TGI [58]: 17.2 µM | TGI [59]: 24.2 µM
